Key:
Arachnoid cell AC07 = experiment: Cell viability, MTT assay; type: cell-based; conditions: NF2+/+, 72 hrs
Procedure: (§1) Cells were plated at 3 × 10^3 cells per well in 96-well plates overnight and treated with various concentrations of Pak inhibitors for 72 hours. Cell viability was measured by MTT assay and the half maximal inhibitory concentration (IC50) was calculated.

Benign Ben-Men-1 = experiment: Cell viability, MTT assay; type: cell-based; conditions: for IC50: NF2−/−, 72 hrs, MTT; for effect on growth of cells: Ben-Men, 3 days, GSK690693 effect only at high doses
Procedure: as §1

Benign MN328 = experiment: Cell viability, MTT assay; type: cell-based; conditions: NF2+/+, 72 hrs
Procedure: as §1

Malignant KT21-MG1 = experiment: Cell viability, MTT assay; type: cell-based; conditions: for IC50: NF2−/−, 72 hrs, MTT; for effect on growth of cells: KT21, 3 days, GSK690693 effect only at high doses
Procedure: as §1

Malignant MN525 = experiment: Cell viability, MTT assay; type: cell-based; conditions: NF2+/+, 72 hrs
Procedure: as §1

KT21 cells = experiment: Apoptosis, Annexin V positive cells by flow cytometry; type: cell-based; conditions: 3 days, vs DMSO
Procedure: For detection of apoptosis, subconfluent cells were plated in 60-mm plate and treated with inhibitors for 3 days. Cells were collected, washed and resuspended in 1x binding buffer with Annexin V-EGFP and propidium iodide (BioVision, CA) and incubated at room temperature for 5 min in dark. Apoptosis was measured using FACS with collecting 10,000 events per sample.

Ben-Men cells = experiment: Immunoblot of signaling pathways; type: cell-based
Procedure: (§2) Protein concentration was determined, and equal amount of total proteins were separated by SDS-PAGE. […] GAPDH and β-actin were used as loading control.

KT21 or Ben-Men cells = experiment: Immunoblot of signaling pathways; type: cell-based
Procedure: as §2

[1] = tested on: KT21-MG1-Luc5D intracranial xenografts; experiment: Orthotopic meningioma model, bioluminescence imaging; conditions: SCID mice; oral gavage 90 mg/kg/day; 2 weeks; BLI
Excerpt: Eight-week-old SCID mice were anesthetized with ketamine and their heads were stabilized in a small animal stereotaxic instrument. A midline sagittal incision was made on the cranial skin. A burr hole was drilled in the skull with coordinated 1.5 mm anterior and 1.5 mm lateral to the right from the bregma and a 5-μl Hamilton syringe loaded with cells was slowly inserted through the burr hole and ~0.5 mm downward to the skull base. The incision was closed using surgical absorbable gut suture.
Mice transplanted with meningioma cells were imaged using Xenogen IVIS Spectrum (Caliper, MA). Mice were injected intraperitoneally with Rediject D-Luciferin Ultra at 150 mg/kg under anesthetized with isofluorane. Luciferase activity was measured and all bioluminescence imaging was conducted when perk signal was reached. Once tumors were established (~3 weeks post-transplantation), mice were divided into groups for shRNA studies or drug treatments.
For drugs treatment, mice were dosed with Pak inhibitors daily for 14–21 days and tumor growth was monitored every week by BLI. Mean luminescence for each treatment groups (n = 5) was calculated as described previously.

| SMILES | IC50 (Arachnoid cell AC07) | IC50 (Benign Ben-Men-1) | IC50 (Benign MN328) | IC50 (Malignant KT21-MG1) | IC50 (Malignant MN525) | number of apoptotic cells (KT21 cells) | basal level (expression) of β-catenin (Ben-Men cells) | phosphorylation of β-catenin (Ben-Men cells) | phosphorylation of Pak and Mek1 (at Ser298) (KT21 or Ben-Men cells; inhibitors at IC50 concentration) | impaired KT21 tumor growth compared to vehicle cohort [1] | effect on growth of cells (Benign Ben-Men-1) | effect on growth of cells (Malignant KT21-MG1) | Pak activity (KT21 or Ben-Men cells; immunoblot) |
| --- | --- | --- | --- | --- | --- | --- | --- | --- | --- | --- | --- | --- | --- |
| CCn1c(=O)c(-c2ccc(-c3cncs3)cc2Cl)cc2cnc(Nc3ccc(N4CCN(C)CC4)cc3)nc21 [Frax597] | 1.18 µM | 0.393 µM | 2.81 µM | 2.93 µM | 1.59 µM | substantial increase | did not impact | diminished | dramatically inhibited | 50% |  |  |  |
| CCn1c(-c2nonc2N)nc2c(C#CC(C)(C)O)ncc(OC[C@H]3CCCNC3)c21 [GSK690693] | > 20 µM | 3.27 µM | > 20 µM | 4.24 µM | > 20 µM |  |  |  |  |  | impeded the growth | impeded the growth |  |
| Oc1ccc2ccccc2c1SSc1c(O)ccc2ccccc12 [IPA3, reference compound] |  |  |  |  |  |  | induction |  |  |  |  |  | paradoxical stimulation |
| O=C(NOC[C@H](O)CO)c1ccc(F)c(F)c1Nc1ccc(I)cc1F [PD325901] | > 20 µM | > 20 µM | > 20 µM | > 7 µM | > 20 µM |  |  |  |  |  | no effect | no effect |  |

Reference: PMC4385830, “Group I Paks as therapeutic targets in NF2-deficient meningioma” (Oncotarget, 2015)
